The source made the active and inactive calls. No cut-off for these calls is given here.
Assays:
[1] = Inhibition of Staphylococcus aureus pyruvate carboxylase expressed in Escherichia coli BL21(DE3) assessed as FVB-OAA adduct formation using pyruvate as substrate by Fast violet B assay
[2] = Inhibition of full length Staphylococcus aureus pyruvate carboxylase expressed in Escherichia coli BL21(DE3) assessed as formation of oxaloacetic acid using pyruvate, HCO3-, ATP and NADH as substrate by malate dehydrogenase coupled enzyme assay
[3] = target: L-lactate dehydrogenase (Homo sapiens) (UniProt V9HWB9); assay: Substrate activity at lactate dehydrogenase (unknown origin) at 2 mM in presence of NADH
Homo sapiens [4] = organism: Homo sapiens; assay: Inhibition of MDH (unknown origin) at 1 mM using oxaloacetate as substrate by spectrophotometric analysis
Homo sapiens [5] = organism: Homo sapiens; assay: Inhibition of MDH (unknown origin) at 200 uM using oxaloacetate as substrate by spectrophotometric analysis
[6] = target: L-lactate dehydrogenase (Homo sapiens) (UniProt V9HWB9); assay: Inhibition of lactate dehydrogenase (unknown origin) at 2 mM using pyruvate as substrate in presence of NADH
[7] = target: Carbonic anhydrase 2 (Homo sapiens) (UniProt P00918); assay: Inhibition of human carbonic anhydrase 2 at 200 uM treated with enzyme for 10 mins prior to substrate addition using p-nitrophenyl acetate as substrate measured for 20 mins
[8] = target: 72 kDa type IV collagenase (Homo sapiens) (UniProt P08253); assay: Inhibition of human matrix metalloprotease 2 at 50 uM treated with enzyme for 30 mins prior to substrate addition using omniMMP fluorogenic substrate measured for 30 mins by fluorescence based assay
Chain of 72 kDa type IV collagenase (Homo sapiens) (P08253 110-660 limits assumed): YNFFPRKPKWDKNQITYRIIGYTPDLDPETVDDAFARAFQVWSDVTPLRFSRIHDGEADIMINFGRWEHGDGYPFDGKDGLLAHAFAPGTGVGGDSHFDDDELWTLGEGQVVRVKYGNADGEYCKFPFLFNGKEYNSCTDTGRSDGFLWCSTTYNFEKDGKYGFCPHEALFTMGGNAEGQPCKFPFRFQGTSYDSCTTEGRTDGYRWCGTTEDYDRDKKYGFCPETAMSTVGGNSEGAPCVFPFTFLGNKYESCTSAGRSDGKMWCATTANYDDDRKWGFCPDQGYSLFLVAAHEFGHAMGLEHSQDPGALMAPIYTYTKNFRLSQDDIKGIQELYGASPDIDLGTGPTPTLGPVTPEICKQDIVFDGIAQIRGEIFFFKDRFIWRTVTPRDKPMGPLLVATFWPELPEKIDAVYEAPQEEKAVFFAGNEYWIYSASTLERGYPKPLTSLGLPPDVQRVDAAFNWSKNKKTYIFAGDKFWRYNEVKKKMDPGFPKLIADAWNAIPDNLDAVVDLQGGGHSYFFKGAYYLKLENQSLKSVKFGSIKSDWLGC

[9] = (§1) Competitive inhibition of Staphylococcus aureus pyruvate carboxylase expressed in Escherichia coli BL21(DE3) treated with pyruvate as substrate prior to HCO3-, ATP and NADH addition by Michelis-Menten based double-reciprocal plot analysis
[10] = Mixed-type of inhibition of Staphylococcus aureus pyruvate carboxylase expressed in Escherichia coli BL21(DE3) treated with ATP as substrate prior to HCO3-, ATP and NADH addition by Michelis-Menten based double-reciprocal plot analysis
[11] = target: Carbonic anhydrase 2 (Homo sapiens) (UniProt P00918); assay: Increase in human carbonic anhydrase 2 activity at 200 uM treated with enzyme for 10 mins prior to substrate addition using p-nitrophenyl acetate as substrate measured for 20 mins
Staphylococcus aureus [12] = assay: Non-competitive inhibition of Staphylococcus aureus pyruvate carboxylase expressed in Escherichia coli BL21(DE3) treated with ATP as substrate prior to HCO3-, ATP and NADH addition by Michelis-Menten based double-reciprocal plot analysis
Staphylococcus aureus [13] = assay: as §1

| IC50 [1] [µM] | IC50 [2] [µM] | inhibition (Homo sapiens [4]) [%] | Compound | further results |
| --- | --- | --- | --- | --- |
| 130 | 96 |  | O=C(O)/C(O)=C/c1ccc(C(F)(F)F)cc1 |  |
| > 1000 | > 1000 |  | O=C(O)/C(O)=C/c1ccc([N+](=O)[O-])cc1 |  |
| > 1000 |  |  | O=C(O)C(=O)CC1CCCCC1 |  |
| 67 | 22 | 9 | O=C(O)/C(O)=C/c1ccc(O)cc1 | Activity [3]: Active |
| 98 | 38 |  | Cc1ccc(/C=C(\O)C(=O)O)cc1C | inhibition (Homo sapiens [5]): 3% |
| 4.3 | 3.2 | 4 | O=C(O)/C(O)=C/c1ccc2ccccc2n1 | inhibition [6]: inactive; inhibition [7]: inactive; Activity [3]: inactive; inhibition [8]: inactive; Ki [9]: 0.74 µM; Ki [10]: 5.2 to 7.1 µM |
| 360 | 23 | 74 | Cc1cccc(/C=C(\O)C(=O)O)c1 | inhibition (Homo sapiens [5]): 13% |
| 170 | 56 |  | COc1ccc(/C=C(\O)C(=O)O)cc1 |  |
| 3 | 11 |  | O=C(O)/C(O)=C/c1ccc(/C=C(\O)C(=O)O)cc1 | Activity [11]: Active; inhibition [8]: Active |
| 240 | 130 | 78 | O=C(O)/C(O)=C/c1ccccc1 | inhibition (Homo sapiens [5]): 0% |
| > 1000 | > 1000 |  | O=C(O)C(=O)Cc1ccccc1Br |  |
| 280 | 220 | 12 | O=C(O)/C(O)=C/c1ccc(Cl)cc1 | inhibition (Homo sapiens [5]): 2% |
| > 2000 | > 2000 |  | O=C(O)C(=O)Cc1ccccc1[N+](=O)[O-] |  |
| 48 |  |  | O=C(O)/C(O)=C/c1ccc(-c2ccsc2)cc1 | inhibition [8]: Active |
|  |  |  | O=C(O)C(=O)O | inhibition (Staphylococcus aureus [12]): Active; inhibition (Staphylococcus aureus [13]): Active |
| 100 | 30 | 78 | O=C(O)/C(O)=C/c1ccc(F)cc1 | inhibition (Homo sapiens [5]): 23% |
| > 2000 |  |  | O=C(O)C(=O)CCc1ccccc1 |  |
| 210 | 140 | 10 | Cc1ccc(/C=C(\O)C(=O)O)cc1 | inhibition (Staphylococcus aureus [12]): Active; inhibition (Homo sapiens [5]): -3%; inhibition (Staphylococcus aureus [13]): Active |
| > 3000 |  |  | O=C(O)C(=O)c1ccccc1 [BENZOYL FORMIC ACID] |  |
| > 2000 |  |  | C=CCCC(=O)C(=O)O |  |
| 58.6 |  |  | O=C(O)/C=C/c1ccc(/C=C(\O)C(=O)O)cc1 | Activity [11]: Active; inhibition [8]: Active |
| 200 | 81 | 9 | O=C(O)/C(O)=C/c1ccc(Br)cc1 | inhibition (Homo sapiens [5]): 0% |
| 118 |  |  | O=C(O)/C=C/c1cccc(/C=C(\O)C(=O)O)c1 |  |

| Compound | IC50 [1] [µM] | IC50 [2] [µM] | inhibition (Homo sapiens [4]) [%] | further results |
| --- | --- | --- | --- | --- |
| O=C(O)C(O)Cc1ccccc1 (centres undefined) | > 3000 |  |  |  |

Reference: ChEMBL document CHEMBL4393736, “Evaluation of α-hydroxycinnamic acids as pyruvate carboxylase inhibitors” (Bioorg Med Chem, 2019)
